# Target: T1, human CRTH2 receptor (Homo sapiens, UniProt Q9Y5Y4)
# T1 construct: host or cells: CHO-K1 (CHO-K1-hCRTH2 cells); membranes prepared in house from the purchased cell line
# T1 sequence (Q9Y5Y4 1-395): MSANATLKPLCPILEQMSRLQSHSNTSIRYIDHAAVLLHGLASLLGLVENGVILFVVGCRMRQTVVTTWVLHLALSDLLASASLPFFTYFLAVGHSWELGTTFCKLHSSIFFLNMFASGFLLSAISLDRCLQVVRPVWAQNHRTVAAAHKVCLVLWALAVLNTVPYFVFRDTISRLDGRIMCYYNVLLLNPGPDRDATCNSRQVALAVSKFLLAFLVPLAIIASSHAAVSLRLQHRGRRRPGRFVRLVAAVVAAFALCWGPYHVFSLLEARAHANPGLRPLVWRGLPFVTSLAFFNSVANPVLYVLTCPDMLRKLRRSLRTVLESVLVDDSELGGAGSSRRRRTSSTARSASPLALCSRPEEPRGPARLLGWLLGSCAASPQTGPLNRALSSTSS
# Assay: Human CRTH2 receptor membrane radioligand binding assay (SPA, [3H]-PGD2)
# Settings: displacement of [3H]-PGD2 (1 nM) from CHO-K1-hCRTH2 cell membranes, 3 h room temperature
# Experimental: Preparation of Human CRTH2 Receptor Membranes and Radioligand Binding Assay
# The binding of CRTH2 antagonists is determined using membranes prepared from Chinese hamster ovary cells (CHO-K1 cells) transfected with the human CRTH2 receptor (CHO-K1-hCRTH2 cells, Perkin Elmer, Cat No ES-561-C). To produce cell membranes the CHO-K1-hCRTH2 cells are cultured in suspension in CHO SFMII medium supplemented with 400 μg/ml G418. The cells are harvested by centrifugation at 300 g for 10 min at room temperature. The cell pellet is resuspended in Phosphate Buffer Saline (PBS) including a protease inhibitor mix (Complete, Roche) and adjusted to a concentration of 10E7 cells/ml. The CHO-K1-hCRTH2 cells are disrupted by nitrogen […] to obtain the membrane preparation. Cell debris is removed by centrifugation (500 g at 4° C., 30 min) and the supernatant is transferred into fresh tubes followed by a second centrifugation at 40000 g for 1 h at 4° C. to sediment the membranes. The membranes are suspended in SPA incubation buffer (50 mM Tris HCl, 10 mM MgCl2, 150 mM NaCl, 1 mM EDTA, pH 7.4) without bovine serum albumin, homogenized by passing through a single use needle (Terumo, 23G×1″), and stored in aliquots at −80° C.
# The CRTH2 receptor binding assay is performed in a scintillation proximity assay (SPA) format with the radioligand [^3H]-PGD2 (Perkin Elmer, NET616000MC). CHO-K1-hCRTH2 cell membranes are again homogenized by passing through a single use needle (Terumo, 23G×1″) and diluted in SPA incubation buffer in suitable concentrations (0.5-10 μg protein/well). The SPA assay is set up in 96 well microtiter plates (Perkin Elmer, CatNo. 6005040) in SPA incubation buffer with a final volume of 200 μl per well and final concentration of 50 mM Tris-HCl, 10 mM MgCl2, 150 mM NaCl, 1 mM EDTA pH 7.4, 0.1% bovine serum albumin). The SPA assay mixture contains 60 μl of the membrane suspension, 80 μl of Wheat Germ Agglutinin coated PVT beads (GE Healthcare, RPNQ-0001, 0.3 mg/well), 40 μl of [3H]-PGD2 diluted in SPA buffer to a final concentration of 1 nM (50 000 dpm) and 20 μl of the test compound (dissolved in dimethylsulfoxid). The SPA assay mixture is incubated for 3 h at room temperature. Bound radioactivity is determined with a scintillation counter (Micro Beta Trilux, Wallac).
# The binding of [^3H]-PGD2 to CHO-K1-hCRTH2 cell membranes is determined in the absence (total binding, Bo) and presence (non-specific binding, NSB) of unlabelled PGD2 (1 μM, Cayman Chemical, Cat No 12010) or a reference CRTH2 antagonist (10 μM CAY10471, Cayman Chemical, Cat No 10006735).
# Determination of the affinity of a test compound is calculated by subtraction of the non-specific binding (NSB) from the total binding (Bo) or the binding in the presence of the test compound (B) at a given compound concentration. […] The Bo−NSB value is set to 0% inhibition.
row,Structure (SMILES),Ki [nM]
1,CCc1nn(Cc2ccc(NC(=O)c3ccc(Cl)cc3Br)cc2)c(CC)c1CC(=O)O [Example 2.24],2.8
2,CCc1nn(Cc2ccc(NC(=O)c3cccc(C)c3Br)cc2)c(CC)c1CC(=O)O [Example 2.25],46.6
3,CCc1nn(Cc2ccc(NC(=O)c3ccc4ccccc4c3Br)cc2)c(CC)c1CC(=O)O [Example 2.26],3.6
4,CCCc1c(C)cccc1C(=O)Nc1ccc(Cn2nc(CC)c(CC(=O)O)c2CC)cc1 [Example 2.27],4.3
5,CCc1nn(Cc2ccc(NC(=O)c3cccc(C)c3CC(C)C)cc2)c(CC)c1CC(=O)O [Example 2.28],17.1
6,CCc1nn(Cc2ccc(NC(=O)c3ccccc3C3CCCCC3)cc2)c(CC)c1CC(=O)O [Example 2.29],6.3
7,CCc1nn(Cc2ccc(NC(=O)C(C)(C)C)cc2)c(CC)c1CC(=O)O [Example 2.30],5.8
8,CCc1nn(Cc2ccc(NC(=O)C3CCC3)cc2)c(CC)c1CC(=O)O [Example 2.31],5
9,CCc1nn(Cc2ccc(NC(=O)C3CCCC3)cc2)c(CC)c1CC(=O)O [Example 2.32],2.6
10,CCc1nn(Cc2ccc(NC(=O)C3[C@H]4C[C@@H]5C[C@@H](C[C@H]3C5)C4)cc2)c(CC)c1CC(=O)O (stereo partly shown) [Example 2.33],0.8
11,CCc1nn(Cc2ccc(NC(=O)C(C)C)cc2)c(CC)c1CC(=O)O [Example 2.34],4.3
12,CCc1nn(Cc2ccc(NC(=O)c3ccccc3C3CC3)cc2)c(CC)c1CC(=O)O [Example 2.35],11.6
13,O=C(O)Cc1c(-c2ccccc2)nn(Cc2ccc(NC(=O)c3ccc(Cl)cc3)cc2)c1-c1ccccc1 [Example 2.43],17.4
14,O=C(O)Cc1c(-c2ccccc2)nn(Cc2ccc(NC(=O)c3ccc4ccccc4c3)cc2)c1-c1ccccc1 [Example 2.44],10.2
15,O=C(O)Cc1c(-c2ccccc2)nn(Cc2ccc(NC(=O)c3ccc(C(F)(F)F)cc3)cc2)c1-c1ccccc1 [Example 2.45],8.9
16,CCc1c(CC(=O)O)c(C2CC2)nn1Cc1ccc(NC(=O)c2ccc(Cl)cc2C)cc1 [Example 2.46],0.6
17,CCc1c(CC(=O)O)c(C2CC2)nn1Cc1ccc(NC(=O)c2ccc(C(F)(F)F)cc2)cc1 [Example 2.47],0.1
18,CCc1nn(Cc2ccc(NC(=O)c3cccc4ccccc34)cc2)c(C2CC2)c1CC(=O)O [Example 2.48],1.8
19,CCc1nn(Cc2ccc(NC(=O)c3ccc(Cl)cc3C)cc2)c(C2CC2)c1CC(=O)O [Example 2.49],0.6
20,CCc1nn(Cc2ccc(NC(=O)c3ccc(C(F)(F)F)cc3)cc2)c(C2CC2)c1CC(=O)O [Example 2.50],0.1

row,Structure (SMILES),Ki [nM]
1,CCc1c(CC(=O)O)c(C2CC2)nn1Cc1ccc(NC(=O)c2cccc3ccccc23)cc1 [Example 2.51],3.5
2,CCc1c(CC(=O)O)c(C)nn1Cc1ccc(NC(=O)c2ccc(C(F)(F)F)cc2)cc1 [Example 2.52],0.5
3,CCc1nn(Cc2ccc(NC(=O)c3ccc(C(F)(F)F)cc3)cc2)c(C)c1CC(=O)O [Example 2.53],0.2
4,Cc1c(CC(=O)O)cnn1Cc1ccc(NC(=O)c2ccc3ccccc3c2)cc1 [Example 2.55],21.6
5,Cc1c(CC(=O)O)cnn1Cc1ccc(NC(=O)c2ccc(Cl)c(Cl)c2)cc1 [Example 2.56],27.8
6,Cc1nn(Cc2ccc(NC(=O)c3ccc4ccccc4c3)cc2)cc1CC(=O)O [Example 2.57],19.3
7,Cc1c(CC(=O)O)cnn1Cc1ccc(NC(=O)c2ccc3ccccc3c2)cc1 [Example 2.58],24.6
8,CCc1c(CC(=O)O)cnn1Cc1ccc(NC(=O)c2ccc3ccccc3c2)cc1 [Example 2.59],17.4
9,COc1c(CC(=O)O)c(C)nn1Cc1ccc(NC(=O)c2ccc3ccccc3c2)cc1 [Example 2.60],4.2
10,Cc1nn(Cc2ccc(NC(=O)OCc3ccccc3)cc2)c(C)c1CC(=O)O [Example 3.1],3.8
11,Cc1nn(Cc2ccc(NC(=O)OCc3ccccc3)cc2)c(C)c1CCC(=O)O [Example 3.2],786
12,CCc1nn(Cc2ccc(NC(=O)OCc3ccccc3)cc2)c(CC)c1CC(=O)O [Example 3.3],0.3
13,Cc1nn(Cc2ccc(NC(=O)OCc3ccc(Cl)c(Cl)c3)cc2)c(C)c1CC(=O)O [Example 3.4],0.5
14,Cc1nn(Cc2ccc(NC(=O)OCc3ccccc3Cl)cc2)c(C)c1CC(=O)O [Example 3.5],16.8
15,Cc1nn(Cc2ccc(NC(=O)OCc3ccccc3Br)cc2)c(C)c1CC(=O)O [Example 3.6],14.9
16,Cc1nn(Cc2ccc(NC(=O)OCc3ccc4ccccc4c3)cc2)c(C)c1CC(=O)O [Example 3.7],0.6
17,Cc1nn(Cc2ccc(NC(=O)OC(C)(C)C)cc2)c(C)c1CC(=O)O [Example 3.8],28.6
18,CCc1nn(Cc2ccc(NC(=O)OCc3ccc(Cl)c(Cl)c3)cc2)c(CC)c1CC(=O)O [Example 3.9],0.1
19,CCc1nn(Cc2ccc(NC(=O)OCc3ccccc3Cl)cc2)c(CC)c1CC(=O)O [Example 3.10],5.2
20,CCc1nn(Cc2ccc(NC(=O)OCc3ccccc3Br)cc2)c(CC)c1CC(=O)O [Example 3.11],3.5

row,Structure (SMILES),Ki [nM]
1,CCc1nn(Cc2ccc(NC(=O)OCc3ccc4ccccc4c3)cc2)c(CC)c1CC(=O)O [Example 3.12],0.1
2,Cc1nn(Cc2ccc(NC(=O)OCc3ccccc3)cc2Cl)c(C)c1CC(=O)O [Example 3.13],4.7
3,Cc1nn(Cc2ccc(NC(=O)OCc3ccccc3)cc2F)c(C)c1CC(=O)O [Example 3.14],8.9
4,Cc1nn(Cc2ccc(NC(=O)NCc3ccccc3)cc2)c(C)c1CC(=O)O [Example 4.1],16.8
5,Cc1nn(Cc2ccc(NS(=O)(=O)c3ccccc3)cc2)c(C)c1CC(=O)O [Example 5.1],43.9
6,Cc1nn(Cc2ccc(NS(=O)(=O)c3ccc(Cl)cc3)cc2)c(C)c1CC(=O)O [Example 5.2],33.7
7,Cc1nn(Cc2ccc(NS(=O)(=O)c3ccc(Cl)c(Cl)c3)cc2)c(C)c1CC(=O)O [Example 5.3],30.6
8,Cc1nn(Cc2ccc(NS(=O)(=O)c3ccc(C(F)(F)F)cc3)cc2)c(C)c1CC(=O)O [Example 5.4],230
9,Cc1nn(Cc2ccc(NCc3ccc(Cl)cc3)cc2)c(C)c1CC(=O)O [Example 6.1],438
10,Cc1nn(Cc2ccc(NCc3ccccc3)cc2)c(C)c1CC(=O)O [Example 6.2],311
11,Cc1nn(Cc2ccc(NCc3ccc(C(F)(F)F)cc3)cc2)c(C)c1CC(=O)O [Example 6.3],261
12,Cc1cc(Cn2nc(C)c(CC(=O)O)c2C)ccc1NC(=O)c1ccccc1 [Example 7.1],407
13,Cc1cc(Cn2nc(C)c(CC(=O)O)c2C)ccc1NC(=O)c1ccc(Cl)cc1 [Example 7.2],162
14,Cc1cc(Cn2nc(C)c(CC(=O)O)c2C)ccc1NC(=O)c1ccc(C(F)(F)F)cc1 [Example 7.3],13.5
15,Cc1cc(Cn2nc(C)c(CC(=O)O)c2C)ccc1NC(=O)c1ccc(Cl)c(Cl)c1 [Example 7.4],2.2
16,Cc1cc(NC(=O)c2ccc3ccccc3c2)ccc1Cn1nc(C)c(CC(=O)O)c1C [Example 7.5],0.3
17,Cc1nn(Cc2ccc(NC(=O)c3ccc(Cl)cc3)cc2Cl)c(C)c1CC(=O)O [Example 7.6],1.2
18,Cc1cc(Cl)ccc1C(=O)Nc1ccc(Cn2nc(C)c(CC(=O)O)c2C)c(Cl)c1 [Example 7.7],3.4

# — patent US20140148484A1, “PYRAZOLE COMPOUNDS FOR TREATING HAIRLOSS” (Boehringer Ingelheim International GmbH, priority 2012, published 2014)
